Three compounds from PMC9841981 (Journal of Medicinal Chemistry, 2022) can be followed below.

The subject of one assay is P. aeruginosa. The experiment in a line: MIC assay in CAA medium supplemented with ferric iron. As to conditions: CAA medium supplemented with ferric iron (100 μM). Type of assay: cell-based, Pseudomonas aeruginosa.
Assay [1] relates to P. aeruginosa ΔpvdFΔpchA with additional deletion of pfeA. The experiment in a line: Growth kinetics, additional deletion of pfeA. The conditions noted are these: 10 μM, CAA medium, 30 °C, 48 h, three independent biological replicates. Type of assay: cell-based, Pseudomonas aeruginosa.
The subject of assay [2] is P. aeruginosa ΔpvdFΔpchA strain. Briefly: Antimicrobial susceptibility assay. As to conditions: iron-restricted CAA medium, MIC assay, 24 and 48 h.

In the case of `C#CCNC(=O)CN1CCN(CC(=O)NCCNC(=O)c2cccc(O)c2O)CCN(CC(=O)NCCNC(=O)c2cccc(O)c2O)CCN(CC(=O)NCCNC(=O)c2cccc(O)c2O)CC1` [Compound 2, Alkyne-DOTAM-OH], the “antimicrobial effect in the presence of excess ferric iron” value in the assay with P. aeruginosa is recorded as “lost their antimicrobial effect”. As for `C#CCCCC(=O)Nc1c(CNC(=O)c2cccc(O)c2O)cc(CNC(=O)c2cccc(O)c2O)cc1CNC(=O)c1cccc(O)c1O` [Compound 4, Alkyne-MECAM-OH], the “growth in the strain lacking PfeA (OD 600 nm)” value in assay [1] was “delayed growth slightly”. As to `CNC(C)C1CCC(N)C(OC2C(N)CC(N)C(OC3OCC(C)(O)C(NC)C3O)C2O)O1` (stereo not drawn) [Gentamicin], the “growth inhibition / antimicrobial activity (in words)” value in assay [2] is reported as “exhibited an activity in the expected range”.
